Among the data in paper PMC10890569, “The Sequence Characteristics and Binding Properties of the Odorant-Binding Protein SvelOBP1 from Sympiezomias velatus (Coleoptera: Curculionidae) to Jujube Volatiles” (Life, 2024) are IC50, Ki and Kd values, retold here.

The target of assay [1] is SvelOBP1. Nature of the assay: Competitive fluorescence binding assay (displacement of 1-NPN). On the set-up: species or system Sympiezomias velatus. The conditions noted are these: for IC50: 2 μM recombinant SvelOBP1/1-NPN, ligand 0-16 μM, 20 mM Tris-HCl pH7.4, three replicates, read-out: IC50 (ligand concentration replacing 50% of initial fluorescence of SvelOBP1/1-NPN mixture). As to the method: (§1) The fluorescent probe 1-N-phenyl-naphthylamine (1-NPN) was used to evaluate the binding affinity of SvelOBP1 protein to different ligands. Forty-three host plant volatiles from leaves of jujube trees were selected as putative ligands (Table 2). Fluorescence-based ligand binding assays were performed on an F-2700 fluorescence spectrophotometer (Hitachi, Tokyo, Japan). The excitation wavelength was 337 nm, and the emission spectra were in the range from 370 to 550 nm. First, all tested ligands and 1-NPN were dissolved in chromatographic methanol and diluted to 1 mM as the stock solution. Second, the recombinant protein was diluted to 2 μM with 20 mM Tris-HCl (pH7.4), and 2 mL of the protein solution was placed in a 1 cm light path quartz cuvette.
(§2) The dissociation constants K1-NPN of 1-NPN to SvelOBP1 were calculated by GraphPad Prism 8.0 software with non-linear regression for the one site-specific binding method. The inhibitory constant (Ki) of each ligand binding to SvelOBP1 was calculated with Equation (1). IC50 is the ligand concentration replacing 50% of the initial fluorescence intensity of the SvelOBP1/1-NPN mixture. [1-NPN] represents the free concentration of 1-NPN. […] (1) Ki=IC50/(1+[1−NPN]/K1−NPN)

The target of assay [2] is SvelOBP1. Nature of the assay: Binding of fluorescent probe 1-NPN to SvelOBP1 (titration, Scatchard plot). The conditions noted are these: 2 μM SvelOBP1 titrated with 1-NPN 0-16 μM, pH7.4; read-out: dissociation constant (Kd) of 1-NPN. On the set-up: species or system Sympiezomias velatus. As to the method:
as §1, §2

Another assay has as its target SvelOBP15. Details: method as in PMID 35711318. The conditions noted are these: cited from earlier work.
[3] abbreviates: Ki=IC50/(1+[1-NPN]/K1-NPN), 2 μM SvelOBP1/1-NPN, pH7.4, mean ± SEM, read-out: Ki (inhibitory constant).
[4] abbreviates: class in words by Ki, read-out: binding affinity class.

Like-named read-outs stand apart in the source and are kept apart here. Where only a bound is given, the exact number is not on record here.

On to `CC12CCC(CC1)C(C)(C)O2` [1,3,3-trimethyl-2-oxabicyclo [2.2.2]octane], for which the IC50 at SvelOBP1 [1] (mean ± SEM) came out at 13.81 ± 0.13 µM. Also, on SvelOBP1 [1] (setting [3]), the Ki is 11.48 ± 0.11 µM.

With `CC(=O)c1ccc(C)c(C)c1` [1-(3,4-dimethylphenyl)ethanone], the IC50 on SvelOBP1 [1] (mean ± SEM) was greater than 16 µM. For `CCc1ccc(C(C)=O)cc1` [1-(4-ethylphenyl)ethanone], the IC50 on SvelOBP1 [1] (mean ± SEM) turned out to be 13.1 ± 0.16 µM. For the same molecule, the Ki on SvelOBP1 [1] (setting [3]) is 10.9 ± 0.13 µM; on SvelOBP1 [1] (setting [4]), 10 to 16 µM. `c1ccc(Nc2cccc3ccccc23)cc1` [1-NPN, 1-N-phenyl-naphthylamine]: at SvelOBP1 [2], the Kd (in general, the free concentration of one partner at which half of the binding sites on the other are occupied at equilibrium, for simple one-to-one binding) worked out at 4.92 ± 0.04 µM. For the molecule `C=C(C)C1CC=C(C)CC1` (stereo not drawn) [1-methyl-4-prop-1-en-2-ylcyclohexene], the IC50 at SvelOBP1 [1] (mean ± SEM) stood at 13.11 ± 0.02 µM. For the same molecule, the Ki on SvelOBP1 [1] (setting [3]) stood at 10.9 ± 0.01 µM. For the molecule `C=C1C2CCC(C2)C1(C)C` (stereo not drawn) [2,2-dimethyl-3-methylidenebicyclo [2.2.1]heptane], the IC50 at SvelOBP1 [1] (mean ± SEM) was greater than 16 µM.

`O=C1CCCC1C1CCCC1` (stereo not drawn) [2-cyclopentylcyclopentan-1-one]: at SvelOBP1 [1] (mean ± SEM), the IC50 was greater than 16 µM. In the case of `C=CCc1ccc(O)c(OC)c1` [2-methoxy-4-prop-2-enylphenol], the IC50 on SvelOBP1 [1] (mean ± SEM) is greater than 16 µM. As for `CC1=CCC(C(C)C)C=C1` (stereo not drawn) [2-methyl-5-propan-2-ylcyclohexa-1,3-diene], at SvelOBP1 [1] (mean ± SEM), the IC50 amounted to 11.69 ± 0.07 µM. The Ki at SvelOBP1 [1] (setting [3]) amounted to 9.71 ± 0.06 µM.

As to `CC(C)=Cc1ccccc1` [2-methylprop-1-enylbenzene], the IC50 at SvelOBP1 [1] (mean ± SEM) was greater than 16 µM. Consider `CC(C)C=O` [2-methylpropanal], for which, on SvelOBP1 [1] (mean ± SEM), the IC50 was greater than 16 µM. For the molecule `CC1=CCC2C(C1)C2(C)C` (stereo not drawn) [3,7,7-trimethylbicyclo [4.1.0]hept-3-ene], the IC50 at SvelOBP1 [1] (mean ± SEM) came out at 14.56 ± 0.07 µM. Also, the Ki on SvelOBP1 [1] (setting [3]) turned out to be 12.1 ± 0.06 µM.

For `C=CC(C)=CCC=C(C)C` [3,7-dimethylocta-1,3,6-triene], the IC50 on SvelOBP1 [1] (mean ± SEM) stood at 11.13 ± 0.06 µM. Further, the Ki on SvelOBP1 [1] (setting [3]) was found to be 9.25 ± 0.05 µM. For the molecule `C=CC(C)(O)CCC=C(C)C` (stereo not drawn) [3,7-dimethylocta-1,6-dien-3-ol], the IC50 at SvelOBP1 [1] (mean ± SEM) was determined as 13.6 ± 0.16 µM. In addition, the Ki at SvelOBP1 [1] (setting [3]) turned out to be 11.3 ± 0.13 µM.

`C=CC(=C)CCC=C(C)C` [7-methyl-3-methylideneocta-1,6-diene]: the IC50 at SvelOBP1 [1] (mean ± SEM) was greater than 16 µM. Regarding `CC1=CC[C@H]2C[C@@H]1C2(C)C` [(1S,5S)-2,6,6-trimethylbicyclo [3.1.1]hept-2-ene], at SvelOBP1 [1] (mean ± SEM), the IC50 is greater than 16 µM. As for `CC(C)=CCC/C(C)=C/CO` [(2E)-3,7-dimethylocta-2,6-dien-1-ol], at SvelOBP1 [1] (mean ± SEM), the IC50 is greater than 16 µM. `CC(C)=CCC/C(C)=C/C(=O)O` [(2E)-3,7-dimethylocta-2,6-dienoic acid]: the IC50 on SvelOBP1 [1] (mean ± SEM) is greater than 16 µM.

`CC(C)=CCC/C(C)=C/CC/C(C)=C/CO` [(2E,6E)-3,7,11-trimethyldodeca-2,6,10-trien-1-ol]: the IC50 at SvelOBP1 [1] (mean ± SEM) was 14.4 ± 0.17 µM. Moreover, on SvelOBP1 [1] (setting [3]), the Ki is 11.9 ± 0.14 µM. As to `C=C/C(C)=C/C/C=C(\C)CCC=C(C)C` [(3E,6E)-3,7,11-trimethyldodeca-1,3,6,10-tetraene], at SvelOBP1 [1] (setting [3]), the Ki was 8.73 ± 0.09 µM.

As for `C=CC(C)(O)CC/C=C(\C)CCC=C(C)C` (stereo not drawn) [(6E)-3,7,11-trimethyldodeca-1,6,10-trien-3-ol], the IC50 on SvelOBP1 [1] (mean ± SEM) was greater than 16 µM. Take `CC(C)=CCC/C(C)=C/CC/C(C)=C/CC/C=C(\C)CC/C=C(\C)CCC=C(C)C` [(6E,10E,14E,18E)-2,6,10,15,19,23-hexamethyltetracosa-2,6,10,14,18,22-hexaene]: the IC50 at SvelOBP1 [1] (mean ± SEM) was greater than 16 µM. For `C/C(=C\CO)CCCC(C)CCCC(C)CCCC(C)C` (stereo not drawn) [(E)-3,7,11,15-tetramethylhexadec-2-en-1-ol], the IC50 at SvelOBP1 [1] (mean ± SEM) was greater than 16 µM. `CCC/C=C/CO` [(E)-hex-2-en-1-ol]: the IC50 at SvelOBP1 [1] (mean ± SEM) amounted to 15.44 ± 0.14 µM. Moreover, at SvelOBP1 [1] (setting [3]), the Ki was 12.83 ± 0.12 µM. `CC/C=C\CCO` [(Z)-hex-3-en-1-ol]: the Ki on SvelOBP1 [1] (setting [3]) is 7.98 ± 0.08 µM; on SvelOBP1 [1] (setting [4]), 5 to 10 µM; at SvelOBP15 it was greater than 16 µM. `CC(C)COC(=O)CCCCC(=O)OCC(C)C` [Bis(2-methylpropyl) hexanedioate]: the IC50 at SvelOBP1 [1] (mean ± SEM) is greater than 16 µM. On to `CCCCOC(C)=O` [Butyl acetate], for which, on SvelOBP1 [1] (mean ± SEM), the IC50 was 13.2 ± 0.47 µM. The Ki on SvelOBP1 [1] (setting [3]) was 10.9 ± 0.39 µM. On to `CCCCOC(=O)c1ccccc1C(=O)OCCCC` [Dibutyl benzene-1,2-dicarboxylate], for which the Ki at SvelOBP1 [1] (setting [3]) is 6.66 ± 0.03 µM. With `CCCCCCCCCCCC` [Dodecane], the IC50 at SvelOBP1 [1] (mean ± SEM) was greater than 16 µM. Take `CCOC(=O)C(C)CC` (stereo not drawn) [Ethyl 2-methylbutyrate]: the IC50 at SvelOBP1 [1] (mean ± SEM) is 11.28 ± 0.1 µM. Besides, the Ki on SvelOBP1 [1] (setting [3]) was 9.37 ± 0.08 µM. For `CCOC(=O)CC(C)C` [Ethyl 3-methylbutanoate], the IC50 at SvelOBP1 [1] (mean ± SEM) is greater than 16 µM. Still for that read-out and setting: the same measure for `C/C=C(\C)C(=O)OCC` [Ethyl (E)-2-methylbut-2-enoate]: greater than 16 µM. `CCCC(=O)OCC` [Ethyl butyrate]: the IC50 at SvelOBP1 [1] (mean ± SEM) worked out at 14.2 ± 0.16 µM. Moreover, at SvelOBP1 [1] (setting [3]), the Ki was determined as 11.8 ± 0.13 µM.

In the case of `CCCCC(=O)OCC` [Ethyl pentanoate], at SvelOBP1 [1] (mean ± SEM), the IC50 is 14.1 ± 0.31 µM. The Ki on SvelOBP1 [1] (setting [3]) was found to be 11.7 ± 0.26 µM.

Regarding `CCCCCCCCCCCCCCCC(=O)O` [Hexadecanoic acid], the IC50 on SvelOBP1 [1] (mean ± SEM) came out at 14.1 ± 0.33 µM. Besides, the Ki is 11.7 ± 0.27 µM at SvelOBP1 [1] (setting [3]) and 10 to 16 µM at SvelOBP1 [1] (setting [4]). With `COC(=O)c1ccccc1O` [Methyl 2-hydroxybenzoate], the IC50 on SvelOBP1 [1] (mean ± SEM) is greater than 16 µM. Regarding `C=CC(O)CCCCC` (stereo not drawn) [Oct-1-en-3-ol], the IC50 on SvelOBP1 [1] (mean ± SEM) is 15.18 ± 0.13 µM. For the same molecule, on SvelOBP1 [1] (setting [3]), the Ki was found to be 12.61 ± 0.11 µM. For the molecule `OCc1ccccc1` [Phenylmethanol], at SvelOBP1 [1] (mean ± SEM), the IC50 turned out to be 11.3 ± 0.27 µM. At SvelOBP1 [1] (setting [3]), the Ki is 9.4 ± 0.23 µM. Take `CCC/C=C/COC(C)=O` [[(E)-hex-2-en-1-yl] acetate]: the IC50 on SvelOBP1 [1] (mean ± SEM) was greater than 16 µM.

Turning to `CCC/C=C/COC(=O)CCCCC` [[(E)-hex-2-enyl] hexanoate], the IC50 on SvelOBP1 [1] (mean ± SEM) is 14.51 ± 0.06 µM. For the same molecule, the Ki on SvelOBP1 [1] (setting [3]) was determined as 12.06 ± 0.05 µM. The corresponding values for `CC/C=C\CCOC(=O)C(C)CC` (stereo not drawn) [[(Z)-hex-3-enyl] 2-methylbutanoate] are 13.4 ± 0.2 µM and 11.2 ± 0.16 µM. Turning to `CC/C=C\CCOC(=O)CC(C)C` [[(Z)-hex-3-enyl] 3-methylbutanoate], the IC50 on SvelOBP1 [1] (mean ± SEM) is 14.4 ± 0.16 µM. Also, the Ki on SvelOBP1 [1] (setting [3]) amounted to 11.9 ± 0.13 µM. Turning to `CC/C=C\CCOC(C)=O` [[(Z)-hex-3-enyl] acetate], on SvelOBP1 [1] (mean ± SEM), the IC50 was determined as 14.45 ± 0.11 µM. In addition, at SvelOBP1 [1] (setting [3]), the Ki is 12.01 ± 0.09 µM. As to `CC/C=C\CCOC(=O)CCC` [[(Z)-hex-3-enyl] butanoate], the IC50 on SvelOBP1 [1] (mean ± SEM) amounted to 15.5 ± 0.9 µM. Further, the Ki on SvelOBP1 [1] (setting [3]) worked out at 12.9 ± 0.75 µM.
